How the values were obtained:
Type in all cases: functional
[1] = tested on: MDA-MB-231; assay: Cytotoxicity against Homo sapiens (human) MDA-MB-231 cells after 48 hr by sulforhodamine B assay; conditions: MDA-MB-231, 48 h
[2] = tested on: NCI-H522; assay: Cytotoxicity against Homo sapiens (human) NCI-H522 cells after 48 hr by sulforhodamine B assay; conditions: NCI-H522, 48 h
[3] = tested on: CCRF-CEM; assay: Cytotoxicity against Homo sapiens (human) CCRF-CEM cells after 48 hr by sulforhodamine B assay
[4] = tested on: NCI-H322M; assay: Cytotoxicity against Homo sapiens (human) NCI-H322M cells after 48 hr by sulforhodamine B assay
[5] = tested on: CAKI-1; assay: Cytotoxicity against Homo sapiens (human) Caki1 cells after 48 hr by sulforhodamine B assay; conditions: CAKI-1, 48 h
[6] = tested on: RXF 393; assay: Cytotoxicity against Homo sapiens (human) RXF393 cells after 48 hr by sulforhodamine B assay; conditions: RXF 393, 48 h
[7] = tested on: SF-268; assay: Cytotoxicity against Homo sapiens (human) SF268 cells assessed as cell growth at 10^-4 M after 48 hr by […] assay; conditions: SF-268, 48 h, read-out: Activity
[8] = tested on: ACHN; assay: Cytotoxicity against Homo sapiens (human) ACHN cells after 48 hr by sulforhodamine B assay
[9] = tested on: COLO 205; assay: Cytotoxicity against Homo sapiens (human) COLO205 cells after 48 hr by sulforhodamine B assay; conditions: COLO 205, 48 h
[10] = tested on: 786-0; assay: Cytotoxicity against Homo sapiens (human) 786-0 cells after 48 hr by sulforhodamine B assay; conditions: 786-0, 48 h
[11] = tested on: OVCAR-3; assay: Cytotoxicity against Homo sapiens (human) OVCAR3 cells after 48 hr by sulforhodamine B assay; conditions: OVCAR-3, 48 h
[12] = tested on: SK-OV-3; assay: Cytotoxicity against Homo sapiens (human) SKOV3 cells after 48 hr by sulforhodamine B assay; conditions: SK-OV-3, 48 h
[13] = tested on: HCT-116; assay: Cytotoxicity against Homo sapiens (human) HCT116 cells after 48 hr by sulforhodamine B assay; conditions: HCT-116, 48 h
[14] = tested on: SK-MEL-2; assay: Cytotoxicity against Homo sapiens (human) SK-MEL-2 cells after 48 hr by sulforhodamine B assay; conditions: SK-MEL-2, 48 h
[15] = tested on: EKVX; assay: Cytotoxicity against Homo sapiens (human) EKVX cells after 48 hr by sulforhodamine B assay
[16] = tested on: SNB-75; assay: Cytotoxicity against Homo sapiens (human) SNB75 cells after 48 hr by sulforhodamine B assay; conditions: SNB-75, 48 h
[17] = tested on: OVCAR-5; assay: Cytotoxicity against Homo sapiens (human) OVCAR5 cells after 48 hr by sulforhodamine B assay; conditions: OVCAR-5, 48 h
[18] = tested on: SF-539; assay: Cytotoxicity against Homo sapiens (human) SF539 cells after 48 hr by sulforhodamine B assay; conditions: SF-539, 48 h
[19] = tested on: HOP-62; assay: Cytotoxicity against Homo sapiens (human) HOP62 cells after 48 hr by sulforhodamine B assay; conditions: HOP-62, 48 h
[20] = tested on: OVCAR-8; assay: Cytotoxicity against Homo sapiens (human) OVCAR8 cells after 48 hr by sulforhodamine B assay; conditions: OVCAR-8, 48 h
[21] = tested on: UACC-62; assay: Cytotoxicity against Homo sapiens (human) UACC62 cells after 48 hr by sulforhodamine B assay; conditions: UACC-62, 48 h
[22] = tested on: SNB-19; assay: Cytotoxicity against Homo sapiens (human) SNB19 cells after 48 hr by sulforhodamine B assay; conditions: SNB-19, 48 h
[23] = tested on: SW-620; assay: Cytotoxicity against Homo sapiens (human) SW620 cells after 48 hr by sulforhodamine B assay; conditions: SW-620, 48 h
[24] = tested on: SF-295; assay: Cytotoxicity against Homo sapiens (human) SF295 cells after 48 hr by sulforhodamine B assay; conditions: SF-295, 48 h
[25] = tested on: SF-268; assay: Cytotoxicity against Homo sapiens (human) SF268 cells after 48 hr by sulforhodamine B assay; conditions: SF-268, 48 h
[26] = tested on: MOLT-4; assay: Cytotoxicity against Homo sapiens (human) MOLT4 cells after 48 hr by sulforhodamine B assay; conditions: MOLT-4, 48 h
[27] = tested on: BT-549; assay: Cytotoxicity against Homo sapiens (human) BT549 cells after 48 hr by sulforhodamine B assay; conditions: BT-549, 48 h
[28] = read-out: LC50 (the source's name)

SMILES: ClCc1ccccc1Cn1cnc2c(Cl)ncnc21
- GI50 [1]: 3.02 µM
- LC50 [1]: 45.7 µM
- TGI [1]: 7.41 µM
- GI50 [2]: 1.82 µM
- TGI [2]: 7.24 µM
- CC50 [2, 28]: > 100 µM
- GI50 [3]: 1.28 µM
- TGI [3]: 3.23 µM
- CC50 [3, 28]: 8.12 µM
- GI50 [4]: 3.98 µM
- TGI [4]: 13.8 µM
- CC50 [4, 28]: 43.6 µM
- GI50 [5]: 1.82 µM
- TGI [5]: 4.17 µM
- CC50 [5, 28]: 9.33 µM
- GI50 [6]: 0.44 µM
- TGI [6]: 2.34 µM
- CC50 [6, 28]: 7.41 µM
- growth at 100 µM [7]: 0%
- GI50 [8]: 2.7 µM
- TGI [8]: 6.16 µM
- CC50 [8, 28]: 26.9 µM
- GI50 [9]: 3.89 µM
- TGI [9]: > 100 µM
- CC50 [9, 28]: > 100 µM
- GI50 [10]: 17.8 µM
- LC50 [10]: 83.2 µM
- TGI [10]: 38 µM
- GI50 [11]: 1.41 µM
- LC50 [11]: 8.91 µM
- TGI [11]: 3.54 µM
- GI50 [12]: 4.17 µM
- LC50 [12]: 85.1 µM
- TGI [12]: 15.8 µM
- GI50 [13]: 1.9 µM
- TGI [13]: 3.71 µM
- CC50 [13, 28]: 7.08 µM
- GI50 [14]: 2.75 µM
- LC50 (concentration killing 50% of cells) [14]: > 100 µM
- TGI [14]: 18.2 µM
- GI50 [15]: 3.09 µM
- TGI [15]: 11 µM
- CC50 [15, 28]: 37.1 µM
- GI50 [16]: 2.88 µM
- TGI [16]: 11 µM
- CC50 [16, 28]: 39.8 µM
- GI50 [17]: 2.45 µM
- TGI [17]: 6.6 µM
- CC50 [17, 28]: 25.7 µM
- GI50 [18]: 10.7 µM
- LC50 (concentration killing 50% of cells) [18]: 55 µM
- TGI [18]: 24 µM
- GI50 [19]: 2.51 µM
- TGI [19]: 6.02 µM
- CC50 [19, 28]: 19.9 µM
- GI50 [20]: 2.24 µM
- LC50 (concentration killing 50% of cells) [20]: 20.4 µM
- TGI [20]: 5.24 µM
- GI50 [21]: 3.31 µM
- LC50 (concentration causing 50% net cell kill) [21]: 28.2 µM
- TGI [21]: 6.6 µM
- GI50 [22]: 5.37 µM
- LC50 [22]: > 100 µM
- TGI [22]: > 100 µM
- GI50 [23]: 1.77 µM
- TGI [23]: 5.01 µM
- CC50 [23, 28]: 26.3 µM
- GI50 [24]: 10.5 µM
- TGI [24]: 23.4 µM
- CC50 [24, 28]: 51.3 µM
- GI50 [25]: 3.23 µM
- TGI [25]: 10.9 µM
- CC50 [25, 28]: > 100 µM
- GI50 [26]: 1.58 µM
- TGI [26]: 5.24 µM
- CC50 [26, 28]: > 100 µM
- GI50 [27]: 1.99 µM
- LC50 (50% lethal concentration) [27]: 19.9 µM
- TGI [27]: 5.49 µM
